Measured values reported in patent US9115122B2, “Non-ATP dependent inhibitors of extracellular signal-regulated kinase (ERK)” (UNIVERSITY OF MARYLAND, BALTIMORE, priority 2012, dated 2015).

Assays:
[1] = basic group replacing the ethylamine group; cited from earlier work
SK-MEL-28 melanoma cells [2] = test: Cell proliferation WST-1 assay, single dose (Example 4); type: cell-based; settings: 100 μM, 48 hours
Method in brief: (§1)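 Proliferation is measured by WST-1 reduction: after roughly 5000 cells per well rest 16-20 hours, they receive compound for 48 hours, and the signal is normalized to DMSO control.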

[3] = system: HeLa cervical carcinoma cells; test: as above; type: cell-based; settings: 100 μM, 48 hours
Method in brief: as §1

HL-60 leukemic cells = test: as above; type: cell-based; settings: 100 μM, 48 hours
Method in brief: as §1

[4] = system: Jurkat T-cell leukemia cells; test: as above; type: cell-based; settings: 100 μM, 48 hours
Method in brief: as §1

A375 melanoma cells [5] = test: as above; type: cell-based; settings: 100 μM, 48 hours
Method in brief: as §1

RPMI-7951 melanoma cells = test: as above; type: cell-based; settings: 100 μM, 48 hours
Method in brief: as §1

SK-MEL-28 melanoma cells [6] = test: Dose-response growth inhibition (GI50) of select compounds; type: cell-based; settings: Homo sapiens, SK-MEL-28, 48 h, two days
Protocol: (§2) An example of the dose response curve for compound 30h and the BRaf inhibitor PLX4032 for inhibiting the growth of melanoma cell lines is shown in FIG. 14. […] A summary of GI50 values for select compounds along with comparisons to know ERK pathway inhibitors in various cell lines is shown in Table 13. […] First, thiazolidinedione compounds have been identified to be selective inhibitors of cancer cell lines containing activated ERK signaling. Second, changes in the 4-ethoxyphenyl component of the parent compound 76 improve selectivity and potency for inhibiting melanoma cell growth. Third, compound 30h is a potent inhibitor of melanoma cell lines that have become resistant to the clinically relevant BRaf and MEK inhibitors. […] Lastly, 30h is as potent as the ATP-competitive pyrazolopyridazinamine ERK inhibitor (FR180204) in preventing melanoma cell proliferation and provides an alternative non-ATP-dependent approach to target cancer cells that are dependent on active ERK signaling.
(§3) Melanoma cells (A375, SK-MEL-28, and RPMI7951) were seeded at a density of 5,000 per well in 96-well plate. After overnight incubation, cells were treated with varying doses of PLX4032 (A) or 31h (B) for two days. Cell viability was determined by the addition of Cell Titer-Blue Reagent (20 μL/well) followed by 2 hours of incubation at 37° C. after which fluorescence was recorded (555/585 nm). Cell viability was expressed as percentage of vehicle control and data represent the average of three individual experiments.

RPMI7951 melanoma cells [7] = test: as above; type: cell-based; settings: Homo sapiens, RPMI-7951, 48 h, two days
Protocol: as §2, §3

A375 melanoma cells [8] = test: as above; type: cell-based; settings: Homo sapiens, A-375, 48 h, two days
Protocol: as §2, §3

Jurkat cells = test: as above; type: cell-based; settings: Homo sapiens, Jurkat
[9] = system: serum response element (SRE); test: SRE promoter luciferase assay, HeLa cells (Example 4); type: cell-based
Protocol: (§4) HeLa cells were seeded in 24-well plates (4×10^4 cells/well) and incubated 18 hours prior to achieve ˜60-70% confluent. Cells were transfected with activator protein-1 (pAP1(PMA)-TA-Luc; Clontech) or the serum response element (pGL4.33-SRE; Promega) luciferase reporter plasmids (250 ng/well) using Lipofectamine™ (Invitrogen). After 16 hours, cells were treated with increasing amount of compounds as indicated for 20 minutes, followed by stimulation with EGF (25 ng/mL) for 4.5 hr. The luciferase activity in the cell extracts was determined with a Dual Luciferase Assay System (Promega) according to the manufacturer's instructions. Luciferase activities were monitored with a Lumat LB 9507 luminometer (Berthold Technology) and data were normalized to the amount of protein in each sample.

[10] = system: activator protein-1 (AP-1) promoter; test: AP-1 promoter luciferase assay, HeLa cells (Example 4); type: cell-based
Protocol: as §4

HeLa cells = test: Dose-response growth inhibition (GI50) of select compounds; type: cell-based; settings: Homo sapiens, HeLa
[11] = system: MEK1-induced AP-1 promoter activity; test: AP-1 promoter luciferase assay, HeLa cells expressing active MEK1 mutant; type: cell-based; settings: Homo sapiens, 4 hours, read-out: IC50 inhibition of MEK1-induced AP-1 promoter activity
Protocol: FIG. 4. Compound SF-3-026 and analogs inhibit SRE and AP-1 transcription factor function. (a) HeLa cells were transfected with constructs containing SRE or AP-1 promoters driving luciferase expression and then stimulated with EGF in the presence or absence of SF-3-026 for 4 hours followed by measurements of luciferase activity. Cells treated with U0126 were used as a positive inhibitor control. (b and c) HeLa cells were prepared and treated as in (a) with the indicated concentrations of SF-3-026 or analogs for 4 hours followed by the measurement of luciferase activity regulated by the SRE (b) or AP-1 (c) promoters. Data in (b and c) were normalized to EGF-only treatment and represent the mean and standard deviation from three independent experiments. (d) Compound SF-3-026 and analogs inhibit MEK1-induced AP-1 transcription factor function. HeLa cells were transfected with the AP-1 promoter construct and a constitutively active MEK1 mutant in the presence (10 μM) or absence of the MEK1/2 inhibitor (U0126) or an ATP-competitive ERK inhibitor (ERKi) for 4 hours followed by measurements of luciferase activity. (e) Cells expressing the AP-1 promoter and an active MEK-1 construct were treated with the indicated concentrations of SF-3-026 or analogs for 4 hours followed by the measurement of luciferase activity. Data in (e) were normalized to active MEK1-only treatment and represent the mean and standard deviation from three independent experiments.
as §4, with “(40,000” for “(4×10^4”, “hours” for “hours prior”, “pre-treated” for “treated”, “varying amounts” for “increasing amount”, “hr. In some experiments, cells transfected with the pAP1(PMA)-TA-Luc promoter and a constitutively active MEK1 mutant cDNA were treated with varying amounts of compounds during the last 4 hours of incubation.” for “hr.”, “sample. […]” for “sample.”

[12] = system: HeLa cervical carcinoma cells; test: Cell proliferation, fluorescent Cell Titer Blue Assay (Example 1); type: cell-based; settings: Homo sapiens, 48 hours
Protocol: (§5) FIG. 5. Dose dependent inhibition of cancer cell proliferation in vitro by SF-3-026 and analogs. A375 (closes circles), RPM17951 (closed squares), HeLa (open circles), or Jurkat (open squares) cells were treated for 48 hours with indicated concentration of (a) SF-3-026, (b) SF-2-027, (c) SF-2-029, or (d) SF-2-030 and cell proliferation was assessed by the fluorescent Cell Titer Blue Assay. The data were reproduced in 3 separate experiments.
(§6) Cells were seeded at 25,000 cells/well in 96-well plate and cultured overnight. Cells were treated for 24 hours with various concentrations of compounds and cell viability or caspase 3/7 activity were measured according to manufacturer's instructions using the fluorescent Cell Titer Blue Assay (Promega) or luminescent Caspase 3/7 Glo Assay (Promega).
(§7) It was next determined whether inhibition of AP-1 proteins by SF-3-026 and analogs affected the proliferation of cancer cells driven by mutations that constitutively activate the ERK1/2 pathway. For these experiments, A375 and RPMI7951 melanoma cells, which have a valine to glutamate mutation on residue 600 in BRaf that causes constitutive ERK1/2 activation, were chosen. Moreover, RPMI7951 cells are resistant to clinically used BRaf inhibitors due to overexpression of MAP3K8 (the gene encoding COT/Tp12) that re-activates ERK1/2 signaling. Both melanoma cells lines were treated with varying doses of SF-3-026 or analogs and cell viability was compared to HeLa cervical carcinoma and Jurkat T-cell leukemia cells, which are p53 defective but contain no known activating mutations in the ERK1/2 pathway.

[13] = system: Jurkat T-cell leukemia cells; test: as above; type: cell-based; settings: Homo sapiens, 48 hours
Protocol: as §5, §6, §7

RPMI7951 melanoma cells [14] = test: as above; type: cell-based; settings: Homo sapiens, RPMI-7951; 48 hours
Protocol: as §5, §6, §7

A375 melanoma cells [15] = test: as above; type: cell-based; settings: Homo sapiens, A-375; 48 hours
Protocol: as §5, §6, §7

AP-1 promoter = AP-1 promoter luciferase assay, EGF-stimulated HeLa cells (Example 1); type: cell-based; settings: Homo sapiens, EGF stimulation, 4 hours, read-out: IC50 inhibition of the AP-1 promoter
Protocol: FIG. 4. Compound SF-3-026 and analogs inhibit SRE and AP-1 transcription factor function. (a) HeLa cells were transfected with constructs containing SRE or AP-1 promoters driving luciferase expression and then stimulated with EGF in the presence or absence of SF-3-026 for 4 hours followed by measurements of luciferase activity. Cells treated with U0126 were used as a positive inhibitor control. (b and c) HeLa cells were prepared and treated as in (a) with the indicated concentrations of SF-3-026 or analogs for 4 hours followed by the measurement of luciferase activity regulated by the SRE (b) or AP-1 (c) promoters. Data in (b and c) were normalized to EGF-only treatment and represent the mean and standard deviation from three independent experiments. (d) Compound SF-3-026 and analogs inhibit MEK1-induced AP-1 transcription factor function. […]
HeLa cells were seeded in 24-well plates (40,000 cells/well) and incubated 18 hours to achieve ˜60-70% confluent. […] The luciferase activity in the cell extracts was determined with a Dual Luciferase Assay System (Promega) according to the manufacturer's instructions. Luciferase activities were monitored with a Lumat LB 9507 luminometer (Berthold Technology) and data were normalized to the amount of protein in each sample. […]

Row | SMILES | pKa [1] | Cell Viability (% of Vehicle) SK-MEL-28 (SK-MEL-28 melanoma cells [2]) | Cell Viability (% of Vehicle) HeLa [3] | Cell Viability (% of Vehicle) HL-60 (HL-60 leukemic cells) | Cell Viability (% of Vehicle) Jurkat [4] | Cell Viability (% of Vehicle) A375 (A375 melanoma cells [5]) | Cell Viability (% of Vehicle) RPMI-7951 (RPMI-7951 melanoma cells) | other results
1 | CCOc1ccc(/C=C2\SC(=O)N(Cc3cnc[nH]3)C2=O)cc1 [Compound 28a, (Z)-3((1H-imidazol-5-yl)methyl)-5-(4-ethoxybenzylidene)thiazolidine-2,4-dione] | ~7 | 74 ± 6 % of Vehicle | 80 ± 4 % of Vehicle | 123 ± 20 % of Vehicle | 106 ± 6 % of Vehicle | 101 ± 2 % of Vehicle | 70 ± 2 % of Vehicle | 
2 | CCOc1ccc(/C=C2\SC(=O)N(Cc3cccc(N)n3)C2=O)cc1 [Compound 28b, (Z)-3-((6-aminopyridin-2-yl)methyl)-5-(4-ethoxybenzylidene)thiazolidine-2,4-dione] | ~6 | 86 ± 3 % of Vehicle | 87 ± 6 % of Vehicle | 107 ± 26 % of Vehicle | 105 ± 5 % of Vehicle | 111 ± 1 % of Vehicle | 101 ± 4 % of Vehicle | 
3 | [H]/N=C(/N)NCCN1C(=O)SC(=Cc2ccc(OCC)cc2)C1=O [Compound 28c, (Z)-1-(2-(5-(4-ethoxybenzylidene)-2,4-dioxothiazolidin-3-yl)ethyl)guanidine] | ~12 | 55 ± 6 % of Vehicle | 17 ± 2 % of Vehicle | 20 ± 6 % of Vehicle | 6.5 ± 0.5 % of Vehicle | 31 ± 4 % of Vehicle | 42 ± 6 % of Vehicle | 
4 | CC(C)COc1ccc(/C=C2\SC(=O)N(CCN)C2=O)cc1 [Compound 30g, (Z)-3-(2-aminoethyl)-5-(4-isobutoxybenzylidene)thiazolidine-2,4-dione] |  | 0.8 ± 0.2 % of Vehicle | 48 ± 3 % of Vehicle | 5.0 ± 2 % of Vehicle | 91 ± 8 % of Vehicle | 1.8 ± 0.5 % of Vehicle | 0.3 ± 0.04 % of Vehicle | GI50 (SK-MEL-28 melanoma cells [6]): 36 µM; GI50 (RPMI7951 melanoma cells [7]): 11 µM; GI50 (A375 melanoma cells [8]): 22 µM; GI50 (Jurkat cells): > 100 µM; IC50 ([9]; Homo sapiens, EGF 25 ng/mL, read-out: estimated IC50 SRE promoter activity): ≤ 5 µM; IC50 ([10]; Homo sapiens, EGF 25 ng/mL, read-out: estimated IC50 AP-1 promoter activity): ≤ 5 µM; GI50 (HeLa cells): ~100 µM
5 | NCCN1C(=O)S/C(=C\c2ccc(OCc3ccccc3)cc2)C1=O [Compound 30h, (Z)-3-(2-aminoethyl)-5-(4-(benzyloxy)benzylidene)thiazolidine-2,4-dione] |  | 1.0 ± 1 % of Vehicle | 59 ± 3 % of Vehicle | 5.2 ± 2 % of Vehicle | 87 ± 5 % of Vehicle | 0.6 ± 0.4 % of Vehicle | 0.2 ± 0.04 % of Vehicle | GI50 (SK-MEL-28 melanoma cells [6]): 9 µM; GI50 (RPMI7951 melanoma cells [7]): 7 µM; GI50 (A375 melanoma cells [8]): 7 µM; GI50 (Jurkat cells): > 100 µM; inhibition of ERK-mediated SRE promoter activity ([9]; EGF): less potent than compounds 76 and 30g at lower concentrations; inhibition of ERK-mediated AP-1 promoter activity ([10]; EGF): less potent than compounds 76 and 30g at lower concentrations; GI50 (HeLa cells): > 100 µM
6 | Cc1ccc(S(=O)(=O)OC2C=CS(=O)(=O)C2)cc1 (stereo not shown) [SF-3-027] |  |  |  |  |  |  |  | IC50 [11]: ~40 µM; GI50 [12]: 22 µM; GI50 [13]: > 50 µM; GI50 (RPMI7951 melanoma cells [14]): 3.1 µM; GI50 (A375 melanoma cells [15]): 5.5 µM
7 | O=S1(=O)C=CC(OS(=O)(=O)c2ccc(-c3ccccc3)cc2)C1 (stereo not shown) [SF-3-029] |  |  |  |  |  |  |  | IC50 (AP-1 promoter): < 10 µM; IC50 [11]: 5 to 10 µM; GI50 [12]: 25 µM; GI50 [13]: > 50 µM; GI50 (RPMI7951 melanoma cells [14]): 4.9 µM; GI50 (A375 melanoma cells [15]): 7.9 µM
